Laboratory results from US11174251B2, “Compositions and methods for inhibition of the JAK pathway” (Rigel Pharmaceuticals, Inc., priority 2010, dated 2021).
Structures can show the parent of a compound that is named as a salt.

What follows are molecules tested against T1, JAK3 (Homo sapiens, UniProt P52333) (assay: Assay for CD23 expression on Ramos B-cells stimulated by IL-4 (Table IV: ability to inhibit JAK3 activity)). Conditions: tested under conditions described in Example 3 (so in the source).
T1 construct: The Ramos B-cell line was acquired from ATCC (ATCC Catalog No. CRL-1596); host or cells: Ramos B-cell line (human)
T1 sequence (P52333 1-1124): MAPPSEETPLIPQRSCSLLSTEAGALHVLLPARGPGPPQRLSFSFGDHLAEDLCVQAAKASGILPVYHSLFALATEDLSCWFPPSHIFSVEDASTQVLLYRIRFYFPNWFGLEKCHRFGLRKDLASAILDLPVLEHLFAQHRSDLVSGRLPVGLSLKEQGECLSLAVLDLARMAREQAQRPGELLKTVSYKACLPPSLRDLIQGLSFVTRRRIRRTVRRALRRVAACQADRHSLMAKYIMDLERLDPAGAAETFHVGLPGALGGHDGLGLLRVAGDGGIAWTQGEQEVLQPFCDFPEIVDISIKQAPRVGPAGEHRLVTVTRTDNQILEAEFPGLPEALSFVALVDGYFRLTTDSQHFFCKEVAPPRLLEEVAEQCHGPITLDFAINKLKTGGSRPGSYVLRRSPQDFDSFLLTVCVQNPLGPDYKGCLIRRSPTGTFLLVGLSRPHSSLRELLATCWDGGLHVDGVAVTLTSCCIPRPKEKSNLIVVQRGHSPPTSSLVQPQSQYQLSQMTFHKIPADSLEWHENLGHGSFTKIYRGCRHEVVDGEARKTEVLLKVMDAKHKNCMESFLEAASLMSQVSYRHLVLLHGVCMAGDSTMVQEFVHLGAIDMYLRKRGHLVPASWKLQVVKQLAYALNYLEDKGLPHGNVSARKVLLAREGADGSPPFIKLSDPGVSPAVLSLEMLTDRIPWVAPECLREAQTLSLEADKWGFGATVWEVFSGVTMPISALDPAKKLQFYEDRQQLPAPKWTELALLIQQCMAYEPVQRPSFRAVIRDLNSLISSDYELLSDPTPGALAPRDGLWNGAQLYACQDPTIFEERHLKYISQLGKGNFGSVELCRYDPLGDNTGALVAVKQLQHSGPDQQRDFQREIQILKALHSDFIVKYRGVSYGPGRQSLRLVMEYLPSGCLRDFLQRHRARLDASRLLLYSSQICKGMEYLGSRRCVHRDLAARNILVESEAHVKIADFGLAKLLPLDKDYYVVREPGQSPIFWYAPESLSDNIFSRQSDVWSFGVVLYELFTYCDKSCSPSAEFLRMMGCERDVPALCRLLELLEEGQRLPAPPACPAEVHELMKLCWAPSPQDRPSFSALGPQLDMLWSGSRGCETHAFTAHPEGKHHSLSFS
Format: cell-based
Outline: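 Human Ramos B cells in RPMI with 5% serum, pre-incubated 1 h at 37 °C with compound or DMSO, then stimulated with IL-4 (final 50 units/mL) for 20–24 h. Surface CD23 upregulation measured by FACS staining as readout of JAK1/JAK3–Stat-6 signalling.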

IC50 [µM] | SMILES
0.5 to 5 | Cc1cnc(Nc2cc(C)c(C(=O)O)c(C)c2)nc1Nc1ccc2oc(=O)[nH]c2c1 [Compound I-140, N2-(4-carboxy-3,5-dimethyl)phenyl-5-methyl-N4-(2-oxo-2,3-dihydro-1,3-benzoxazol-5-yl)-2,4-pyrimidinediamine]
< 0.5 | Cc1cnc(Nc2cc(C)c(C(=O)OCc3ccccc3)c(C)c2)nc1Nc1ccc2oc(=O)[nH]c2c1 [Compound I-141, N2-(4-benzyloxycarbonyl-3,5-dimethyl)phenyl-5-methyl-N4-(2-oxo-2,3-dihydro-1,3-benzoxazol-5-yl)-2,4-pyrimidinediamine]
< 0.5 | Cc1cnc(Nc2cc(C)c(CO)c(C)c2)nc1Nc1ccc2oc(=O)[nH]c2c1 [Compound I-142, N2-(3,5-dimethyl-4-hydroxymethyl)phenyl-5-methyl-N4-(2-oxo-2,3-dihydro-1,3-benzoxazol-5-yl)-2,4-pyrimidinediamine]
< 0.5 | COCc1c(C)cc(Nc2ncc(C)c(Nc3ccc4oc(=O)[nH]c4c3)n2)cc1C [Compound I-143, N2-(3,5-dimethyl-4-methoxymethyl)phenyl-5-methyl-N4-(2-oxo-2,3-dihydro-1,3-benzoxazol-5-yl)-2,4-pyrimidinediamine]
< 0.5 | COC(=O)c1cc(Nc2ncc(C)c(Nc3ccc4oc(=O)[nH]c4c3)n2)cc(C)c1C [Compound I-144, N2-(3,4-dimethyl-5-methoxycarbonyl)phenyl-5-methyl-N4-(2-oxo-2,3-dihydro-1,3-benzoxazol-5-yl)-2,4-pyrimidinediamine]
0.5 to 5 | Cc1cnc(Nc2cc(C)c(C)c(C(=O)O)c2)nc1Nc1ccc2oc(=O)[nH]c2c1 [Compound I-145, N2-(3-carboxy-4,5-dimethyl)phenyl-5-methyl-N4-(2-oxo-2,3-dihydro-1,3-benzoxazol-5-yl)-2,4-pyrimidinediamine]
< 0.5 | Cc1cnc(Nc2cc(C)c(F)c(C)c2)nc1Nc1ccc2oc(=O)[nH]c2c1 [Compound I-146, N2-(3,5-dimethyl-4-fluoro)phenyl-5-methyl-N4-(2-oxo-2,3-dihydro-1,3-benzoxazol-5-yl)-2,4-pyrimidinediamine benzenesulfonic acid salt]
< 0.5 | Cc1cnc(Nc2cc(C)c(C)c(CO)c2)nc1Nc1ccc2oc(=O)[nH]c2c1 [Compound I-147, N2-(3,4-dimethyl-5-hydroxymethyl)phenyl-5-methyl-N4-(2-oxo-2,3-dihydro-1,3-benzoxazol-5-yl)-2,4-pyrimidinediamine]
5 to 10 | CCCCc1ccc(Nc2ncc(C)c(Nc3ccc4oc(=O)[nH]c4c3)n2)cc1C [Compound I-148, N2-(4-n-butyl-3-methyl)phenyl-5-methyl-N4-(2-oxo-2,3-dihydro-1,3-benzoxazol-5-yl)-2,4-pyrimidinediamine]
< 0.5 | Cc1cnc(Nc2cc(C)c(Br)c(C)c2)nc1Nc1ccc2oc(=O)[nH]c2c1 [Compound I-149, N2-(4-bromo-3,5-dimethyl)phenyl-5-methyl-N4-(2-oxo-2,3-dihydro-1,3-benzoxazol-5-yl)-2,4-pyrimidinediamine]
5 to 10 | Cc1ccc(Nc2ncc(C)c(Nc3ccc4oc(=O)[nH]c4c3)n2)cc1C(=O)O [Compound I-152, N2-(3-carboxy-4-methyl)phenyl-5-methyl-N4-(2-oxo-2,3-dihydro-1,3-benzoxazol-5-yl)-2,4-pyrimidinediamine]

Further lines, the molecule ahead of its results:

SMILES | IC50 [µM]
COc1cc(Nc2ncc(C)c(Nc3ccc4oc(=O)[nH]c4c3)n2)cc(C)c1Cl [Compound I-124, 5-(2-(4-chloro-3-methoxy-5-methylphenylamino)-5-methylpyrimidin-4-ylamino)benzo[d]oxazol-2(3H)-one trifluoroacetate salt] | < 0.5
COc1cc(Nc2ncc(C)c(Nc3ccc4oc(=O)n(C)c4c3)n2)cc(C)c1C [Compound I-125, 5-(2-(3-methoxy-4,5-dimethylphenylamino)-5-methylpyrimidin-4-ylamino)-3-methylbenzo[d]oxazol-2(3H)-one trifluoroacetate salt] | < 0.5
Cc1cnc(Nc2cc(C)c(C)c(C)c2)nc1Nc1ccc2oc(=O)n(C)c2c1 [Compound I-126, 5-(2-(3,4,5-trimethylphenylamino)-5-methylpyrimidin-4-ylamino)-3-methylbenzo[d]oxazol-2(3H)-one trifluoroacetate salt] | < 0.5
COc1cc(Nc2ncc(C)c(Nc3ccc4oc(=O)n(C)c4c3)n2)cc(C)c1F [Compound I-127, 5-(2-(4-fluoro-3-methoxy-5-methylphenylamino)-5-methylpyrimidin-4-ylamino)-3-methylbenzo[d]oxazol-2(3H)-one trifluoroacetate salt] | < 0.5
CCOC(=O)c1c(C)cc(Nc2ncc(C)c(Nc3ccc4oc(=O)[nH]c4c3)n2)cc1OC [Compound I-128, ethyl 4-(4-(2,3-dihydro-2-oxobenzo[d]oxazol-5-ylamino)-5-methylpyrimidin-2-ylamino)-2-methoxy-6-methylbenzoate] | < 0.5
COc1cc(Nc2ncc(C)c(Nc3ccc4oc(=O)[nH]c4c3)n2)cc(C)c1CO [Compound I-129, 4-(4-(2,3-dihydro-2-oxobenzo[d]oxazol-5-ylamino)-5-methylpyrimidin-2-ylamino)-2-methoxy-6-methylbenzyl alcohol trifluoroacetate salt] | < 0.5
Cc1cnc(Nc2cc(C)c(C)c(C)c2)nc1Nc1ccc2oc(=O)n(COP(=O)(O)O)c2c1 [Compound I-130, 5-methyl-N4-[3-(phosphonooxy)methyl-2-oxo-2,3-dihydro-1,3-benzoxazol-5-yl]-N2-(3,4,5-trimethyl)phenyl-2,4-pyrimidinediamine arginine salt] | < 0.5
Cc1cnc(Nc2cc(C)c(C)c(C)c2)nc1Nc1ccc2oc(=O)[nH]c2c1 [Compound I-131, 5-methyl-N4-(2-oxo-2,3-dihydro-1,3-benzoxazol-5-yl)-N2-(3,4,5-trimethyl)phenyl-2,4-pyrimidinediamine benzenesulfonic acid salt] | < 0.5
Cc1cnc(Nc2cc(C)c(C)c(C)c2)nc1Nc1ccc2oc(=O)n(COP(=O)(O)O)c2c1 [Compound I-132, 5-methyl-N4-[3-(phosphonooxy)methyl-2-oxo-2,3-dihydro-1,3-benzoxazol-5-yl]-N2-(3,4,5-trimethyl)phenyl-2,4-pyrimidinediamine Tris salt] | < 0.5
Cc1cnc(Nc2cc(C)c(C)c(C)c2)nc1Nc1ccc2oc(=O)n(COP(=O)(O)OCCN(C)C)c2c1 [Compound I-133, N4-{3-[2-(N,N-dimethylamino)ethoxy]phosphinyloxymethyl-2-oxo-2,3-dihydro-1,3-benzoxazol-5-yl}-5-methyl-N2-(3,4,5-trimethyl)phenyl-2,4-pyrimidinediamine] | 5 to 10
Cc1cnc(Nc2cc(C)c(C)c(C)c2)nc1Nc1ccc2oc(=O)n(COP(=O)(OCCN(C)C)OCCN(C)C)c2c1 [Compound I-134, N4-{3-bis[2-(N,N-dimethylamino)ethoxy]phosphinyloxymethyl-2-oxo-2,3-dihydro-1,3-benzoxazol-5-yl}-5-methyl-N2-(3,4,5-trimethyl)phenyl-2,4-pyrimidinediamine] | > 10
Cc1cnc(Nc2cc(C)c(C)c(C)c2)nc1Nc1ccc2oc(=O)n(COP(=O)(O)O)c2c1 [Compound I-136, 5-methyl-N4-[3-(phosphonooxy)methyl-2-oxo-2,3-dihydro-1,3-benzoxazol-5-yl]-N2-(3,4,5-trimethyl)phenyl-2,4-pyrimidinediamine dipotassium salt] | 0.5 to 5
COC(=O)c1c(C)cc(Nc2ncc(C)c(Nc3ccc4oc(=O)[nH]c4c3)n2)cc1C [Compound I-138, N2-(3,5-dimethyl-4-methoxycarbonyl)phenyl-5-methyl-N4-(2-oxo-2,3-dihydro-1,3-benzoxazol-5-yl)-2,4-pyrimidinediamine] | < 0.5
CCN(c1cc(C)c(C)c(C)c1)c1ncc(C)c(Nc2ccc3oc(=O)[nH]c3c2)n1 [Compound I-139, N2-ethyl-N2-(3,4,5-trimethyl)phenyl-5-methyl-N4-(2-oxo-2,3-dihydro-1,3-benzoxazol-5-yl)-2,4-pyrimidinediamine] | > 10
Cc1cnc(Nc2cc(C)c(C(=O)OC(C)(C)C)c(C)c2)nc1Nc1ccc2oc(=O)[nH]c2c1 [Compound I-150, N2-(4-tert-butoxycarbonyl-3,5-dimethyl)phenyl-5-methyl-N4-(2-oxo-2,3-dihydro-1,3-benzoxazol-5-yl)-2,4-pyrimidinediamine] | < 0.5
